From US20120294803A1, “CXCR4 ANTAGONISTS FOR IMAGING OF CANCER AND INFLAMMATORY DISORDERS” (EMORY UNIVERSITY, priority 2010, published 2012)

Key:
CXCR4 = CXCR4 (Homo sapiens, UniProt P61073); experiment: Competition binding assay, metastatic 686LN cells with [18F]M508F and increasing nonradioactive [19F]M508F
Description: To determine whether [^18F]M508F specifically and quantitatively would bind to CXCR4 on the cell surface, we tested this using the metastatic 686LN subclones that are CXCR4-positive in vitro. […] Similarly, a competition assay was used to determine the binding affinity of [^18F]M508F to CXCR4. Metastatic 686LN cells, incubated with a constant amount of [^18F]-M508F and increasing concentrations of nonradioactive [^19F]-M508F for 1 h at ambient temperature, were used in the competition binding assay.

[1] = Tissue biodistribution by tissue harvesting and gamma counter in normal mice; type: in vivo, C57Black mice; details: 15, 30, 60, 120 min post-injection
Description: To determine the tissue biodistribution of [^18F]M508F using a gamma counter in regular C57Black mice, we harvested animal organs, including blood, at 15 min, 30 min, 60 min, and 120 min post-injection and measured the uptake of radioactivity in various organs [radioactivity (% injected dose)/g] with n=5 per group.
Results are shown in FIG. 2 as average vales +/−SE.

[2] = test system: CXCR4-positive orthothopic SCCHN tumors; experiment: MicroPET imaging in orthotopic SCCHN animal model; type: in vivo, mouse; details: 30 mins post-injection
Description: In vivo biodistribution and tumor uptake studies were performed to determine whether [^18F]M508F can be used to image CXCR4-positive tumors in vivo.

CXCR4-positive paw edema = experiment: MicroPET/CT imaging in edema animal model; type: in vivo, mice; details: 30 mins post-injection
Description: In vivo biodistribution studies were performed to determine whether [^18F]M508F can be used to image CXCR4-positive inflammation in vivo.

[3] = test system: CXCR4-positive lung metastases; experiment: MicroPET/CT imaging in lung metastasis of SCCHN animal model; type: in vivo, mouse; details: 60 mins post-injection
Description: MicroPET/CT scan images of the lungs were performed to determine whether [^18F]M508F can be used to image CXCR4-positive lung metastases in vivo. These images were obtained 60 minutes post-injection of [^18F]M508F.

[4] = test system: CXCR4-positive immune cells; experiment: MicroPET/CT imaging of lung inflammation induced by strong-dose radiation; type: in vivo, mouse; details: 20 Gy irradiation, 60 mins post-injection
Description: MicroPET/CT scan images of the lungs were performed to determine whether [^18F]M508F can be used to image lung inflammation induced by the strong-dose radiation therapy in vivo. These images were obtained 60 minutes post-injection of [^18F]M508F.
These images were obtained 60 minutes post-injection of [^18F]M508F.

Chain of CXCR4 (P61073 whole entry, species assumed): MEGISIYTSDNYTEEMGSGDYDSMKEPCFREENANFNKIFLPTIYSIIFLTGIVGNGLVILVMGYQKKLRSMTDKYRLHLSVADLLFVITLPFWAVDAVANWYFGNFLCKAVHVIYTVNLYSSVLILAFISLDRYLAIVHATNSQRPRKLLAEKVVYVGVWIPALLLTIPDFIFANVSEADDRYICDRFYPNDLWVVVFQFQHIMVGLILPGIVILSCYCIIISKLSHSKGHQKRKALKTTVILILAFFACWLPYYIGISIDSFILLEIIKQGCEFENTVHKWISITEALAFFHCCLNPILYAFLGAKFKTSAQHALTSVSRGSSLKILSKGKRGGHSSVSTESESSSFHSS

binding affinity better than 64Cu-AMD3100 (CXCR4; 1.85 μM compared with […]): over 50 times | Kd (CXCR4; metastatic 686LN cells, 1 h at ambient temperature, competition with nonradioactive [19F]-M508F, read-out: binding affinity for CXCR4): 1850 nM | blood and muscle clearance [1]: fast blood and muscle clearance | clearance pathway [1]: renal clearance pathway | crossing of the blood-brain-barrier ([2]; PET sagittal image): does not cross the blood-brain-barrier
SMILES: Fc1cnc([18F])nc1NCc1ccc(CNc2ccnc(NCCN3CCOCC3)n2)cc1 [[^18F]M508F, N4-(4((2-^18-fluoro,5-fluoropyrimidin-4-ylamino)methyl)benzyl)-N2-(2-morpholinoethyl)pyrimidine-2,4-diamine]
accumulation in the liver [1]: anomalous specific accumulation in the liver | tumor uptake of tracer (PET) [2]: significant uptake | uptake of tracer in paw edema (PET) (CXCR4-positive paw edema): significant uptake | uptake of tracer by metastatic SCCHN tumors in lung (PET/CT) [3]: significant uptake | uptake of tracer by CXCR4-positive immune cells in lung inflammation (PET/CT) [4]: significant uptake
